Tested on: Pseudomonas aeruginosa
Assay: Porcine second degree burn wound model infected with Pseudomonas aeruginosa; flush culture (planktonic) and scrub culture (biofilm) counts
Format: in vivo
Details: pig burn wounds; for reduction of counts of planktonic P. aeruginosa: ointment without SSD; for reduction of biofilm bacteria: treatment within 20 minutes of inoculation, compared to the vehicle control, SSD not printed for these labels
[1] = used within 20 minutes of wound inoculation

SMILES	reduction of counts of planktonic P. aeruginosa (used on established biofilms)	reduction of counts of planktonic P. aeruginosa [1]	reduction of biofilm bacteria	reduction of biofilm P. aeruginosa (without SSD, used within 20 minutes)
Cn1nc(C(C)(C)C)cc1C(=O)NNC(=O)c1ccc(Cl)s1 [Compound 1]	largest reduction	largest reduction	2 Log	1 Log
CCCCCCCCCC(=O)CC(=O)Nc1cc(C)ns1 [Compound 2]	–	lower counts	1.5 Log	–
CCCCCCCCCC(=O)CC(=O)N(C)c1ccc(F)cc1 [Compound 3]	–	lower counts	–	–
